Converted amounts (≈) assume the structure as drawn. Read-outs that look alike come from different tables or passages of the source.
How the values were obtained:
[1] = cited from earlier work
[2] = Guaiacol as solubilizing agent for theophylline in water (Example 2); assay type: physicochemical
Method: In order to test the effectiveness of guaiacol as a solubilizing agent for theophylline in water, an experiment corresponding to the last entry in the table accompanying Example 1 is conducted. Theophylline, 4.0 g., and guaiacol, 4.39 g. […] A haze forms as the result of liquefaction of the guaiacol without complete solution thereof.
This amount will solubilize up to and including 4.25 g. of theophylline per 100 ml. of water in the composition. For lower theophylline concentrations, proportionately less guaiacol may be used, 0.47 g. thereof per 100 ml. being sufficient to solubilize 0.85 g. of theophylline per 100 ml.

[3] = Sucrose as supplementary solubilizing agent, crystallization after 3 days (Example 5)
Method: Solutions containing varying quantities of theophylline, glyceryl guaiacolate, and sucrose according to the figures arranged in the following table are prepared. The ingredients are warmed to about 60° C. to effect solution and the solutions are then kept at room temperature to observe whether crystallization occurs. Sucrose is taken as representative of the total of all other water soluble pharmaceutically acceptable ingredients that may be used in formulating the present compositions for the purposes of this experiment. It is apparent, of course, that the actual weight of flavors, colors, and other ingredients that will ordinarily be used for the purpose of creating pharmaceutical elegance will be relatively minor and that sucrose or equivalent material such as corn syrup or sorbitol is the only ingredient of this type which will ordinarily be used in substantial quantity.
(§1) (1) per 100 ml. of solution.
(§2) (2) per 100 ml. of water in solution.
*Appearance of duplicate samples after being stored separately at
26° C. and at 0° C. for 3 days.

[4] = cited from earlier work; remark: listed apart in the source
[5] = Solubility of theophylline in water with glyceryl guaiacolate, crystallization after 3 days (Example 1); assay type: physicochemical; details: for Result (appearance after storage): 3 days
Method: Varying quantities of theophylline and glyceryl guaiacolate are mixed and warmed with sufficient water to provide 100 ml. of solution. The solutions are cooled, adjusted to 100 ml. volume, and kept for 3 days to allow crystallization to take place. The specific gravities of the fresh solutions are measured, and the amount of water contained in 100 ml. of solution calculated. Two identical tubes of each composition are prepared. One is kept at room temperature (25° C.) and the other at 0° C.
A larger quantity of theophylline, 1.0 g./100 ml., will, however, dissolve when 0.75 g. of glyceryl guaiacolate per 100 ml. is also present in solution. Up to 4.0 g. of theophylline per 100 ml. of solution is soluble at room temperature when 7.0 g. of glyceryl guaiacolate per 100 ml. of solution is employed.
as §1, §2

[6] = Solubility in water or ethanol (statements in the description)
[7] = cited from earlier work; remark: listed apart in the source
[8] = accepted by the art; cited from earlier work

In the case of `COc1ccccc1O` [guaiacol], the “concentration of saturated solution in water” value ([1]; room temperature, absence of other solutes) is listed as 1.7 g./100 ml, the water solubility [1] is listed as ≥ 1.7 g./100 ml and the “specific gravity of solution” value ([2]; guaiacol 3.8 g, theophylline 4.0 g) is listed as ~1.016. For the same compound, the crystallization on storage ([2]; guaiacol 3.8 g, 3 days, room temperature or 0 °C) was “no crystals separate”, the “useful upper guaiacol solubility ratio” value ([2]; room temperature or 0 °C, 4320 min) was “about 4.05 g. per 100 ml. of water” and the appearance of solution ([2]; theophylline 4.0 g, guaiacol 3.8 g) was “clear solution”. The appearance of solution ([2]; theophylline 4.0 g, guaiacol 4.39 g) was “A haze forms” and the “guaiacol dissolved in 100 ml. of water” value ([2]; with 4.37 g. theophylline) was 4.05 g.
For `COc1ccccc1OCC(O)CO` (stereo not drawn) [glyceryl guaiacolate], the “glyceryl guaiacolate per 100 ml. of water in composition” value [3] is listed as 8.7 g. per 100 ml. of water, the “glyceryl guaiacolate upper concentration limit with sucrose” value ([3]; water, 72 h) is listed as ≥ 8.7 g. per 100 ml. of water and the “concentration of saturated solution in water” value ([1]; 25 °C) is listed as 5 g./100 ml. The water solubility [1] was ≥ 1.7 g./100 ml.
For `COc1ccccc1OC1(O)C(=O)NC(=O)NC1=O` [hemiacetal condensation product of guaiacol and alloxan], the water solubility [1] is given as ≥ 1.7 g./100 ml.
In the case of `Cn1c(=O)c2[nH]cnc2n(C)c1=O` [aminophylline], the “precipitation under acidic conditions” value ([4]; acidic conditions such as occur in the stomach) is given as “precipitation often occurs” and the “solubility in alkaline solution” value ([4]; in excess of pH 8.0) is given as “relatively high solubilities in alkaline solution”.
For `Cn1c(=O)c2[nH]cnc2n(C)c1=O` [theophylline], the “crystallization at ice temperature” value ([5]; 4.0 g theophylline, 7.0 g glyceryl guaiacolate per 100 ml. solution) was “Crystallization at ice temperature does, however, occur”, the “crystallization at ice temperature” value ([5]; 4.37 g theophylline, 7.64 g glyceryl guaiacolate per 100 ml. water) was “Slight crystallization” and the “theophylline soluble per 100 ml. of solution” value ([5]; glyceryl guaiacolate 7.0 g. per 100 ml. of solution, room temperature, 4320 min) was “Up to 4.0 g. per 100 ml. of solution”. For the same compound, the “Result (appearance after storage)” value ([5]; theophylline 0.83 g, glyceryl guaiacolate 0 per 100 ml solution, 25 °C) was “Clear Solution”, the “Result (appearance after storage)” value ([5]; theophylline 0.85 g, glyceryl guaiacolate 0 per 100 ml solution, 0 °C) was “Crystals formed” and the “Result (appearance after storage)” value ([5]; theophylline 1.00 g, glyceryl guaiacolate 0.75 g per 100 ml solution, 25 °C) was “Solution clear”. For the same compound, the “Result (appearance after storage)” value ([5]; theophylline 3.50 g, glyceryl guaiacolate 4.00 g per 100 ml solution, 0 °C) was “Crystals formed”, the “Result (appearance after storage)” value ([5]; theophylline 3.50 g, glyceryl guaiacolate 5.00 g per 100 ml solution, 25 °C) was “Clear solution” and the “Result (appearance after storage)” value ([5]; theophylline 4.00 g, glyceryl guaiacolate 7.00 g per 100 ml solution, 0 °C) was “Crystals formed”. For the same compound, the “Result (appearance after storage)” value ([5]; theophylline 4.00 g, glyceryl guaiacolate 7.00 g per 100 ml solution, 25 °C) was “Clear solution”, the solubility ([5]; water, no glyceryl guaiacolate, read-out: normal solubility of theophylline (exceeded by)) was < 8.5 mg/mL and the “concentration in aqueous solution with guaiacol or water soluble forms thereof” value ([6]; solubilized by guaiacol and water soluble forms) was ≤ 4.0 g./100 ml. The “effect of water soluble ingredients on theophylline solubility” value ([6]; sucrose, sorbitol, glycerol, ethanol, solubilized by guaiacol and its derivatives) was “do not tend to diminish the solubility of the theophylline significantly”, the solubility ([6]; water) was 80 mg/mL (≈ 444 mM) and the “theophylline per 100 ml. of water in composition” value [3] was 4.4 g. per 100 ml. of water. For the same compound, the solubility at 72 h ([3]; water) was ≥ 44 mg/mL, the “pain on intramuscular injection” value ([7]; intramuscular) was “painful” and the absorption pattern ([7]; oral) was “irregular absorption pattern”. The gastrointestinal side effects ([7]; oral) was “frequently results in abdominal discomfort, nausea, and vomiting”, the solubility in ethanol ([1]; published figure) was 1.25 g./100 ml and the therapeutic blood concentration [8] was 5 µg/mL. For the same compound, the “theophylline solubilized by guaiacol” value ([2]; guaiacol 0.47 g. per 100 ml.) was 0.85 g. per 100 ml and the “theophylline solubilized per 100 ml. of water” value ([2]; guaiacol about 4.05 g. per 100 ml. water, 4320 min) was ≤ 4.25 g. per 100 ml. of water.
For `COc1cc(S(=O)(=O)[O-])ccc1O.O.[K+]` [potassium guaiacol sulfonate], the water solubility [1] is given as ≥ 1.7 g./100 ml, the crystallization on storage (potassium guaiacol sulfonate 4.28 g, theophylline 1.5 g per 100 ml., ice temperature) is given as “Slight crystallization occurs” and the appearance of solution (potassium guaiacol sulfonate 4.28 g, theophylline 1.5 g per 100 ml., room temperature) is given as “clear solution”. The crystallization on storage (potassium guaiacol sulfonate 4.28 g, theophylline 2 g per 100 ml., 0 °C) was “Crystallization from this solution occurs”, the “separation of solid on storage” value (potassium guaiacol sulfonate 4.28 g, theophylline 2 g per 100 ml., room temperature) was “only very slight separation of solid material occurs” and the crystallization on storage (potassium guaiacol sulfonate 8.56 g, theophylline 4.0 g in 100 ml., 0 °C) was “Crystallization from this solution occurs”. For the same compound, the crystallization on storage (potassium guaiacol sulfonate 8.56 g, theophylline 4.0 g in 100 ml., room temperature) was “Crystallization from this solution occurs”.
